We go through 9 compounds from ChEMBL document CHEMBL5360622, “Leucettinibs, a Class of DYRK/CLK Kinase Inhibitors Inspired by the Marine Sponge Natural Product Leucettamine B” (J Med Chem, 2023).

Experiment [1] has as its target Dual specificity protein kinase CLK4 (Homo sapiens, UniProt Q9HAZ1).
For experiment [2], the target named is T1, Dual specificity tyrosine-phosphorylation-regulated kinase 3 (Homo sapiens, UniProt O43781).
T1 sequence (O43781 whole entry): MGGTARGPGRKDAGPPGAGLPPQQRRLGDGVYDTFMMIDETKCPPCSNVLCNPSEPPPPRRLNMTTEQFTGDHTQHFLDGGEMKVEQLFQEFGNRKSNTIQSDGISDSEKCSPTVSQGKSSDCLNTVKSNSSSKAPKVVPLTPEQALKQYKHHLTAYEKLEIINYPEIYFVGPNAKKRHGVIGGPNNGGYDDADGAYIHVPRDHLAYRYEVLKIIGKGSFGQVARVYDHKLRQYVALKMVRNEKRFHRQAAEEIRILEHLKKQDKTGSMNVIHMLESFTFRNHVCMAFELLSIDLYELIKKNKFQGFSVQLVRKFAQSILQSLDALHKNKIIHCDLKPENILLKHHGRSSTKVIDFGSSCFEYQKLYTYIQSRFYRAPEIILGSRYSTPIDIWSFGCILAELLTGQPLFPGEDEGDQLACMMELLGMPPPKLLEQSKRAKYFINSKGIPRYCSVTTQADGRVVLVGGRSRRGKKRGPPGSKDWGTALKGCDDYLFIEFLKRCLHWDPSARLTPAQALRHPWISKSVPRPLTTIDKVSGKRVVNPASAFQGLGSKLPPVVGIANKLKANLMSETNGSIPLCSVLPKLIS

Experiment [3] deals with Cyclin-dependent kinase 5/CDK5 activator 1 (Homo sapiens, UniProt Q00535). The class given is cell-based, Sf9.
Cyclin-dependent kinase 5/CDK5 activator 1, sequence (Q00535 whole entry): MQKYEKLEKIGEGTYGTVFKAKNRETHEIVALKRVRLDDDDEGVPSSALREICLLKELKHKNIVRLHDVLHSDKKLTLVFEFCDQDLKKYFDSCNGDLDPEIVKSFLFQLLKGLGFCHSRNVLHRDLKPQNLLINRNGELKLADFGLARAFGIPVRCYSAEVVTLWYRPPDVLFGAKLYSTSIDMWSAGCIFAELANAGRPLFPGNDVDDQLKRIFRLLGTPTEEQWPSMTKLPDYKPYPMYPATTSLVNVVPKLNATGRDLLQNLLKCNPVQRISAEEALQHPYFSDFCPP
Cyclin-dependent kinase 5/CDK5 activator 1, sequence (Q15078 whole entry, further chain): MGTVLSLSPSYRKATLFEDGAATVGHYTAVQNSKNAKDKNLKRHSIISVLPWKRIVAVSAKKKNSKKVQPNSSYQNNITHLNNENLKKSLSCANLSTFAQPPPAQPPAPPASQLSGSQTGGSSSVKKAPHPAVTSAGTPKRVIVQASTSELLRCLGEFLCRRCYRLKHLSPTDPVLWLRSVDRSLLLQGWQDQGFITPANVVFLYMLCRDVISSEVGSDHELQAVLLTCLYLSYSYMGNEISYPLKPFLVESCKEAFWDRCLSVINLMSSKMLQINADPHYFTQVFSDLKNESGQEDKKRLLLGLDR
Experiment [4] concerns the target T2, Dual specificity tyrosine-phosphorylation-regulated kinase 2 (Homo sapiens, UniProt Q92630).
T2 sequence (Q92630 whole entry): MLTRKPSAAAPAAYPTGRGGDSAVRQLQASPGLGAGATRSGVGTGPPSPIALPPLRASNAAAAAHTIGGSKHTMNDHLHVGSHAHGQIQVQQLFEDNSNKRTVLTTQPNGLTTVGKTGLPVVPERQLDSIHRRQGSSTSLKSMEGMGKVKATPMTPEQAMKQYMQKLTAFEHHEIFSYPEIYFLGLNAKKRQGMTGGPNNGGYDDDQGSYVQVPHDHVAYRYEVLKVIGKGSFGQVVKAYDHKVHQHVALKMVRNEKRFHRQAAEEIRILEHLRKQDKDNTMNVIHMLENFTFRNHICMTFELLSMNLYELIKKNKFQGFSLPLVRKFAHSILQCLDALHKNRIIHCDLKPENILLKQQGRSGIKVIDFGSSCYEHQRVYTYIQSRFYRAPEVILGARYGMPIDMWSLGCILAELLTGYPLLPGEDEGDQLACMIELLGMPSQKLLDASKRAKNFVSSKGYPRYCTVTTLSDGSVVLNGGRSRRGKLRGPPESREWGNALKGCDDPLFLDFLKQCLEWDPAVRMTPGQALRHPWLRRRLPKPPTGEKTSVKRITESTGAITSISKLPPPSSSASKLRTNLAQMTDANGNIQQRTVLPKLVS

Experiment [5] addresses Glycogen synthase kinase-3 beta (Homo sapiens, UniProt P49841). The class given is cell-based, Sf9.
Experiment [6] has as its target Casein kinase I isoform epsilon (Homo sapiens, UniProt P49674).
For experiment [7], the target named is T3, Dual specificity tyrosine-phosphorylation-regulated kinase 4 (Homo sapiens, UniProt Q9NR20).
T3 sequence (Q9NR20 whole entry): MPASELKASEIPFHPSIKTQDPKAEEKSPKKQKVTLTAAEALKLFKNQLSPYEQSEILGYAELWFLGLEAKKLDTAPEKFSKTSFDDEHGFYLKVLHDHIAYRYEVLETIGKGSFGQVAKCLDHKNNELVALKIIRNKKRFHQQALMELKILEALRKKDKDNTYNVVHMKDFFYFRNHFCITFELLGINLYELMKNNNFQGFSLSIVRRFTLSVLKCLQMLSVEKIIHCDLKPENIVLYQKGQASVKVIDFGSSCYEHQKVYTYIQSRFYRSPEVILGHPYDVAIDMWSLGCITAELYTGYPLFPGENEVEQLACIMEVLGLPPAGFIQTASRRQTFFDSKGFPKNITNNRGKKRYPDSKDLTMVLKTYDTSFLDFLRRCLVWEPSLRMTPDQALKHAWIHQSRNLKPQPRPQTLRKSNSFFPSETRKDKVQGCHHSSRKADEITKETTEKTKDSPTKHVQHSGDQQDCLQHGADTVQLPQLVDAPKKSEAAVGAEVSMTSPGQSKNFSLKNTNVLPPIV

Experiment [8] has as its target Dual specificity protein kinase CLK2 (Homo sapiens, UniProt P49760).
Experiment [9] has as its target Dual specificity protein kinase CLK3 (Homo sapiens, UniProt P49761). The class given is cell-based, Sf9.

Casein kinase I isoform epsilon, sequence (P49674 whole entry, canonical isoform): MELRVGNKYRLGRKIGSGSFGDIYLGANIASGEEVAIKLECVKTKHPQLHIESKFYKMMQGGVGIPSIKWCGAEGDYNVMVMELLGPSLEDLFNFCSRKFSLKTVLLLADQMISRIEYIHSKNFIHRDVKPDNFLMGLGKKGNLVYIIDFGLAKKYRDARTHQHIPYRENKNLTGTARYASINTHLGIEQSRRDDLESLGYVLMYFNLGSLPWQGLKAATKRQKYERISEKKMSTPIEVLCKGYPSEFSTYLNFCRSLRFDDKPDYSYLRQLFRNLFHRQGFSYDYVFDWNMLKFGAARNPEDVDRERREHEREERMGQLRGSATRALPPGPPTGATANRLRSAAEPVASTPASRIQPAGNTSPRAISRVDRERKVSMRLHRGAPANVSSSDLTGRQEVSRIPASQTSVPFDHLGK
Dual specificity protein kinase CLK3, sequence (P49761 whole entry): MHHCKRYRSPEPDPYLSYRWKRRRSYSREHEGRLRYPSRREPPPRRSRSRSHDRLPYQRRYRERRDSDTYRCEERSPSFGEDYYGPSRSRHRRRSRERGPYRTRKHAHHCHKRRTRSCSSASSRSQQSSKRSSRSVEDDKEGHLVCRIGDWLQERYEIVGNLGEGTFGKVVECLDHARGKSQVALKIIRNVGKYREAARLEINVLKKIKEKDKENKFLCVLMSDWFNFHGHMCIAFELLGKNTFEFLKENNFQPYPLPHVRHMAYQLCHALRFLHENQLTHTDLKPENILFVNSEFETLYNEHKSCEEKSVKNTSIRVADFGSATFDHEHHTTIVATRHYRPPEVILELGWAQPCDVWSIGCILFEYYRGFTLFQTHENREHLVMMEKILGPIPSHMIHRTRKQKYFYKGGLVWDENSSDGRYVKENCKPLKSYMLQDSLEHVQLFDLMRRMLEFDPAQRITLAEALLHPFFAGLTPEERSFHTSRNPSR
Dual specificity protein kinase CLK2, sequence (P49760 whole entry): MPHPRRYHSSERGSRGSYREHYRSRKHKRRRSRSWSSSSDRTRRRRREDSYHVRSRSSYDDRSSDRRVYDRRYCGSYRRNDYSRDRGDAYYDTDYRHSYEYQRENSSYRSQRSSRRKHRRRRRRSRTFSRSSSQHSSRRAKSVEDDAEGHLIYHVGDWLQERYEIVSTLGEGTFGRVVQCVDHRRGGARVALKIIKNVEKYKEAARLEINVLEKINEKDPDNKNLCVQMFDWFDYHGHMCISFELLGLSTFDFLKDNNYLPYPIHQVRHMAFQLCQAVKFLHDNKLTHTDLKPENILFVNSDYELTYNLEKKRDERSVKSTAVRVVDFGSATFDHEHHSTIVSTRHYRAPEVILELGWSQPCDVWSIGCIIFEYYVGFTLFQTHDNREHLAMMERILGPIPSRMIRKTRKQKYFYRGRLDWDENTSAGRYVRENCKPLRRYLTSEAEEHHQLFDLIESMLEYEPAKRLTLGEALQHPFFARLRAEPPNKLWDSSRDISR
Dual specificity protein kinase CLK4, sequence (Q9HAZ1 whole entry): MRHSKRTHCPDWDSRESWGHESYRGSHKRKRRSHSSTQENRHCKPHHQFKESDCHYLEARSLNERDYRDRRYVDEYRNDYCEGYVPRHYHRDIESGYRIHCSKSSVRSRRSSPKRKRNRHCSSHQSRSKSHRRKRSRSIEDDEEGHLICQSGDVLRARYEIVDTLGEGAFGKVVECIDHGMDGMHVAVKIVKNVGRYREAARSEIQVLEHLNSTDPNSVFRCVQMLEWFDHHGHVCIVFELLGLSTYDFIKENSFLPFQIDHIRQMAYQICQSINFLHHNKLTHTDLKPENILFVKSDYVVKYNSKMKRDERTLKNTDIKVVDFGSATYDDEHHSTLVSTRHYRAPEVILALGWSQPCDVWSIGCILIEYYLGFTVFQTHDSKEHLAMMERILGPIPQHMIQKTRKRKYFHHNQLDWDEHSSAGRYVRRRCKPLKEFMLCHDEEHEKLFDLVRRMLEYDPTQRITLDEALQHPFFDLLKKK
Glycogen synthase kinase-3 beta, sequence (P49841 whole entry, canonical isoform): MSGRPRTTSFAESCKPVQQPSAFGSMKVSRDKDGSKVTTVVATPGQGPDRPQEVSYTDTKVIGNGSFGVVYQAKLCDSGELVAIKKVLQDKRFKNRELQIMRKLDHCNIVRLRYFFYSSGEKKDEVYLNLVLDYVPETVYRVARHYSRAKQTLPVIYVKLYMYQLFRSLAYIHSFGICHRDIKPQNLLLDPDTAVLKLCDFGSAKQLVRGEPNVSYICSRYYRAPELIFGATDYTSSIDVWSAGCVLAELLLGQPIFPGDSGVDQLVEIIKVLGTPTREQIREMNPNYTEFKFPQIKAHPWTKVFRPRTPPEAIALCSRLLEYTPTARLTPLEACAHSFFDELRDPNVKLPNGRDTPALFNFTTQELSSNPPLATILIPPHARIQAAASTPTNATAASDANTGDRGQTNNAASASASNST

In the case of `O=C1NC(Nc2ccc(N3CCOCC3)cc2)=N/C1=C\c1ccc2ncsc2c1`, the IC50 is 4930 nM in experiment [1]; over 10000 nM in [2]; over 10000 nM in experiment [3]; over 10000 nM in [4]; over 10000 nM in [5]; over 10000 nM in experiment [6]. Also, the IC50 in experiment [7], in experiment [8] and in experiment [9] was over 10000 nM throughout.
In the case of `CN(C)CC(NC1=N/C(=C\c2ccc3ncsc3c2)C(=O)N1)c1ccccc1` (racemic), the 50% inhibitory concentration (IC50) in [1] is 104 nM; in experiment [2] it was 1500 nM; in experiment [3], over 10000 nM; in [4], over 10000 nM; in experiment [5] it was 6770 nM; in [6], over 10000 nM. Further, the IC50 in [7] stood at 8730 nM; in experiment [8], 590 nM; in experiment [9] it was 4120 nM.
On to `CC1(C)C2CCC1(C)[C@H](NC1=N/C(=C\c3ccc4ncsc4c3)C(=O)N1)C2` (stereo partly specified), for which the IC50 in [1] is 11 nM; in [2], 223 nM; in experiment [3] it was over 10000 nM; in experiment [4] it was 176 nM; in [5] it was over 10000 nM; in [6] it was over 10000 nM. Further, the half-inhibitory concentration (IC50) in experiment [7] is 221 nM; in experiment [8] it was 17 nM; in experiment [9], 738 nM.
Turning to `Cc1nc2ccc(/C=C3\N=C(NC4CCCCCC4)NC3=O)cc2s1`, the IC50 in experiment [1] is 34 nM; in experiment [2], 3260 nM; in experiment [3] it was over 10000 nM; in [4] it was 2280 nM; in experiment [5], over 10000 nM; in experiment [6], over 10000 nM. Moreover, the IC50 in experiment [7] was over 10000 nM; in experiment [8], 5630 nM; in experiment [9] it was over 10000 nM.
For `O=C1NC(NCc2ccccc2)=N/C1=C\c1ccc2ncsc2c1`, the half-inhibitory concentration (IC50) was 13 nM in [1]; 1640 nM in experiment [2]; 6110 nM in experiment [3]; 1210 nM in [4]; 2150 nM in experiment [5]; over 10000 nM in experiment [6]. In addition, the IC50 was determined as 1940 nM in experiment [7], 86 nM in [8] and 280 nM in experiment [9].
As to `O=C1NC(NC2CCNC2=O)=N/C1=C\c1ccc2ncsc2c1` (racemic), the IC50 was 33 nM in experiment [1]; 2560 nM in [2]; over 10000 nM in experiment [3]; 1660 nM in experiment [4]; over 10000 nM in experiment [5]; over 10000 nM in experiment [6]. The results for the IC50 in experiment [7], in [8] and in experiment [9] were 3120 nM, 1030 nM and 1150 nM, respectively.
On to `CC(C)(C)NC(=O)OC12CC3CC(CC(NC4=N/C(=C\c5ccc6ncsc6c5)C(=O)N4)(C3)C1)C2`, for which the IC50 in experiment [1] was 11 nM; in experiment [2], 299 nM; in experiment [3], over 10000 nM; in experiment [4], 147 nM; in experiment [5], 1800 nM; in experiment [6], 5000 nM. The IC50 in experiment [7] amounted to 127 nM; in experiment [8], 35 nM; in experiment [9] it was 709 nM.
Take `O=C1NC(NC2CCCNC2=O)=N/C1=C\c1ccc2ncsc2c1` (racemic): the IC50 in experiment [1] was 35 nM; in experiment [2] it was 2800 nM; in experiment [3], over 10000 nM; in experiment [4], 2090 nM; in experiment [5], over 10000 nM; in experiment [6] it was over 10000 nM. Moreover, the IC50 in experiment [7] was determined as 7290 nM; in experiment [8], 1320 nM; in experiment [9], 1680 nM.
For the compound `CC(NC1=N/C(=C\c2ccc3ncsc3c2)C(=O)N1)C12CC3CC(CC(C3)C1)C2` (racemic), the half-inhibitory concentration (IC50) in [1] is 210 nM; in experiment [2], over 10000 nM; in experiment [3], over 10000 nM; in experiment [4], over 10000 nM; in experiment [5], over 10000 nM; in experiment [6] it was over 10000 nM. For the same compound, the values for the half-inhibitory concentration (IC50) in [7], in experiment [8] and in experiment [9] were over 10000 nM, 1320 nM and 5110 nM, respectively.
